Consider one molecule from patent publication US9409880B2, “Modulators of TLR3/dsRNA complex and uses thereof” (The Regents of the University of Colorado, a body corporate, priority 2011, dated 2016).

Data set [1] deals with T1, TLR7 (Mus musculus, UniProt P58681).
T1 construct: endogenous in cells; host or cells: RAW 264.7
T1 sequence (P58681 27-1050): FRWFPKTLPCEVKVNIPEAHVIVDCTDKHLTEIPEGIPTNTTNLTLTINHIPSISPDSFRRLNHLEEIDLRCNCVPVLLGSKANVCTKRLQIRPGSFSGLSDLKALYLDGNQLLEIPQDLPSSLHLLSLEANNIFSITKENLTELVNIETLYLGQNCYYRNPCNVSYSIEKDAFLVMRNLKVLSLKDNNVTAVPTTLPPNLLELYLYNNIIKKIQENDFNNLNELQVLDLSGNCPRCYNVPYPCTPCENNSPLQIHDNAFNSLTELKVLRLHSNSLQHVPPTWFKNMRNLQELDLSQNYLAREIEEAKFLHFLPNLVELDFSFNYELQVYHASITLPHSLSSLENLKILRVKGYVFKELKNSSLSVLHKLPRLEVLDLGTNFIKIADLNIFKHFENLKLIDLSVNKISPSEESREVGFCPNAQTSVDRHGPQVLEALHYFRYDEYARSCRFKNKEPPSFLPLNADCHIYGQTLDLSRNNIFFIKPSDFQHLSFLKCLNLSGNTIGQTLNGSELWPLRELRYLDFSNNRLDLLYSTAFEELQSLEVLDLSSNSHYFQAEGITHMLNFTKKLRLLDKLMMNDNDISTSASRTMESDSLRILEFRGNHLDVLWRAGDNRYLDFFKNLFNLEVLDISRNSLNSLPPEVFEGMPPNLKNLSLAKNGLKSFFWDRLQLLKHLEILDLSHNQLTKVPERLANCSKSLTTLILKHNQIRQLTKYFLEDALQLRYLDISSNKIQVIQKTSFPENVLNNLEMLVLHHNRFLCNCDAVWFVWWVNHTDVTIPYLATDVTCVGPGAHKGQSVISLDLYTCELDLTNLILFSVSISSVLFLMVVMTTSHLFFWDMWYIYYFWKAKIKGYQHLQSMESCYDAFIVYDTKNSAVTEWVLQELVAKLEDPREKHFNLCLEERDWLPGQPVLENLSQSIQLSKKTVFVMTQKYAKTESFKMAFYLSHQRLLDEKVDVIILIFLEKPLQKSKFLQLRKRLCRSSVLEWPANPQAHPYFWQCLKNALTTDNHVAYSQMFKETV
As to the kind of experiment: RAW264.7 cell nitric oxide TLR selectivity assay (R848). In kind it is cell-based. The conditions noted are these: 27 μM.

For data set [2], the target named is T2, Cyp2D6 (Homo sapiens, UniProt P10635).
T2 construct: tissue Apredica (testing lab); host or cells: microsomes (subcellular fractions)
As to the kind of experiment: Cytochrome P450 toxicity assay. In kind it is in vitro ADME. The note with it: 25 μM and 50 μM; compared to known inhibitor quinidine. How it is done:
(§1) Test agent was incubated (two wells per condition) with microsomes at 37° C. Control incubations containing vehicle or reference inhibitors were run along side the test agents. The final assay contained test agent, probe substrates at the indicated concentration, 2 mM NADPH, 3 mM MgCl2 in 50 mM potassium phosphate buffer, pH 7.4. The final microsomal concentration was 0.5 mg/mL. The maximum solvent concentration in the final assay was ≦0.5% to minimize the inhibition of Cyps by solvent. NADPH was added last to start the assay. At the end of ten minutes incubation, the assay was stopped by the addition of acetonitrile containing internal standard, the samples were centrifuged, and the amount of probe metabolite in the supernatant was determined by LC/MS/MS. (Testing was done by Apredica, Watertown, Mass. using subcellular fractions)

Data set [3] has as its target T3, Cyp1A2 (Homo sapiens, UniProt P05177).
T3 construct: tissue Apredica (testing lab); host or cells: microsomes (subcellular fractions)
T3 sequence (P05177 1-516): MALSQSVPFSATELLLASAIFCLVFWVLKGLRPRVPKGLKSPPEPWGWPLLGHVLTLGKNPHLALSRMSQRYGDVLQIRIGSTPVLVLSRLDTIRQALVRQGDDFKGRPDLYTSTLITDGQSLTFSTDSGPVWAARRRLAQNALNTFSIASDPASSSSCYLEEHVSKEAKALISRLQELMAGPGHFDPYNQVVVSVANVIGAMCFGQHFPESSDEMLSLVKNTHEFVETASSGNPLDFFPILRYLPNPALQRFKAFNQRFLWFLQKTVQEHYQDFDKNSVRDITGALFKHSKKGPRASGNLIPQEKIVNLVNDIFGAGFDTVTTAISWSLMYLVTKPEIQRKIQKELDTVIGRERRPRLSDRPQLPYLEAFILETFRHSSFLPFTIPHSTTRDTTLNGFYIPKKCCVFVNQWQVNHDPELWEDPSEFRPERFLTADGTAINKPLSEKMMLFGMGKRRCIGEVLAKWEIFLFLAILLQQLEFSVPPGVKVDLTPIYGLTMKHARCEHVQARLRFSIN
The experiment in a line: Cytochrome P450 toxicity assay. The note with it: 25 μM and 50 μM; compared to known inhibitor aNF. The class given is in vitro ADME. How it is done:
as §1

Data set [4] deals with T4, Cyp3A4 (Homo sapiens, UniProt P08684).
T4 construct: tissue Apredica (testing lab); host or cells: microsomes (subcellular fractions)
As to the kind of experiment: Cytochrome P450 toxicity assay. The class given is in vitro ADME. The conditions noted are these: 25 μM and 50 μM; compared to known inhibitor ketoconazole. On the procedure:
as §1

For data set [5], the target named is T5, Cyp2C19 (Homo sapiens, UniProt P33261).
T5 construct: tissue Apredica (testing lab); host or cells: microsomes (subcellular fractions)
As to the kind of experiment: Cytochrome P450 toxicity assay. The class given is in vitro ADME. The conditions noted are these: 25 μM and 50 μM; compared to known inhibitor ticlopidine. On the procedure: as §1

Data set [6] concerns TNF-α and IL-1β production. As to the kind of experiment: Cytokine-specific ELISA in RAW 264.7 cells. The class given is cell-based, Mouse. The note with it: 27 μM compound. How it is done:
A secondary cell assay was used to confirm that compound 4a inhibits the downstream signaling transduction mediated by the formation of the TLR3/dsRNA complex. In addition to TLR3 signaling suppression, the release of the proinflammatory cytokines, TNF-α and IL-1β, were also studied.
RAW cells were planted in 6-well plates at 1,000,000 cells per well with 3 mL of medium (RPMI 1640 medium, supplemented with 10% FBS, penicillin (100 U/mL) and streptomycin ([…])) and grown for 24 h at 37° C. in a 5% CO2 humidified incubator. After 24 h, non-adherent cells and media were removed and replaced with fresh RPMI 1640 medium (3 mL/well). […] In additionally wells, one well was treated with only 4a (27 μM) and the other was treated with nothing. Plates were then incubated for an additional 24 h. […] Approximately 400 μL of supernatant were collected into new tubes, frozen at −80° C. until ready for cytokine measurement. The production of the cytokine interleukin-1β (IL-1β) and TNF-α was quantified with enzyme-linked immunosorbent assays (ELISA) using cytokine-specific capture antibodies, biotinylated monoclonal detection antibodies, and recombinant human cytokine standards according to commercially available ELISA kits from R&D Systems. The cytokine level in each sample was determined in duplicate.

For data set [7], the target named is T6, TLR2/1 (Mus musculus, UniProt Q9EPQ1+Q9QUN7).
T6 construct: endogenous in cells; host or cells: RAW 264.7
As to the kind of experiment: RAW264.7 cell nitric oxide TLR selectivity assay (Pam3CSK4). In kind it is cell-based. The note with it: 27 μM.

T4 sequence (P08684 whole entry): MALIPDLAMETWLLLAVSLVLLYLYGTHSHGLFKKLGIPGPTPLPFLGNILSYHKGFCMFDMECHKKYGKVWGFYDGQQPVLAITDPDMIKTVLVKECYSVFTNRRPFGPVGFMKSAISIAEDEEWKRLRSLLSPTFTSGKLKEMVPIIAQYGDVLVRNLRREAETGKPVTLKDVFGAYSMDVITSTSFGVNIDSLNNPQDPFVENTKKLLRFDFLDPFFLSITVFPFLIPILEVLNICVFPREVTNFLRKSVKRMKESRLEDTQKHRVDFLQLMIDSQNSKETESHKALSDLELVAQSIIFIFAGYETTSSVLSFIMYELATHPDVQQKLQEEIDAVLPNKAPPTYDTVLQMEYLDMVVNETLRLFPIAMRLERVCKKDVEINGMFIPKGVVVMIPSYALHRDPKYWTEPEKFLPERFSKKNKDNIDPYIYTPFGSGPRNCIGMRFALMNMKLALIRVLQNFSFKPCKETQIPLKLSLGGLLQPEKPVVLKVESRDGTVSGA
T6 sequence (Q9QUN7 25-784): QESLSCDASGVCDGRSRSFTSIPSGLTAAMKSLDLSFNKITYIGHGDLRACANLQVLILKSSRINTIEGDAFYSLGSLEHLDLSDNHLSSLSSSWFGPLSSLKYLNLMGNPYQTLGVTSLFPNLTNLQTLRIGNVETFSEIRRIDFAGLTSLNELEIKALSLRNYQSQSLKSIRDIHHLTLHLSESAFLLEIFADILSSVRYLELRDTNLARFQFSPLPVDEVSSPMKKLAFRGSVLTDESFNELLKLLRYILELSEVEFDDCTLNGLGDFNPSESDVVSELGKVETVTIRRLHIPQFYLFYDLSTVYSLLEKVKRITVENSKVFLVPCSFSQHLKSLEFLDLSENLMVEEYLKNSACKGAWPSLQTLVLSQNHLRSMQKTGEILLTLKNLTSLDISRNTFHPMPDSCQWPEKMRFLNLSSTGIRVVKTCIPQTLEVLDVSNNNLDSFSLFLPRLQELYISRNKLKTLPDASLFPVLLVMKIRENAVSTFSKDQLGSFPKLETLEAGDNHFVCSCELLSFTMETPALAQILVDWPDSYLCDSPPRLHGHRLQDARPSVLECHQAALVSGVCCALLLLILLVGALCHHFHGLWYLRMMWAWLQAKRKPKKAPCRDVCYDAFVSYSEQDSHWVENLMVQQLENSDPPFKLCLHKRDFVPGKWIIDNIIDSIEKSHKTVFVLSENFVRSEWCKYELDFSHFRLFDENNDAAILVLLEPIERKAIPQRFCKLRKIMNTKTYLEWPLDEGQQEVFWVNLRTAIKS
T6 sequence (Q9EPQ1 25-795 limits assumed): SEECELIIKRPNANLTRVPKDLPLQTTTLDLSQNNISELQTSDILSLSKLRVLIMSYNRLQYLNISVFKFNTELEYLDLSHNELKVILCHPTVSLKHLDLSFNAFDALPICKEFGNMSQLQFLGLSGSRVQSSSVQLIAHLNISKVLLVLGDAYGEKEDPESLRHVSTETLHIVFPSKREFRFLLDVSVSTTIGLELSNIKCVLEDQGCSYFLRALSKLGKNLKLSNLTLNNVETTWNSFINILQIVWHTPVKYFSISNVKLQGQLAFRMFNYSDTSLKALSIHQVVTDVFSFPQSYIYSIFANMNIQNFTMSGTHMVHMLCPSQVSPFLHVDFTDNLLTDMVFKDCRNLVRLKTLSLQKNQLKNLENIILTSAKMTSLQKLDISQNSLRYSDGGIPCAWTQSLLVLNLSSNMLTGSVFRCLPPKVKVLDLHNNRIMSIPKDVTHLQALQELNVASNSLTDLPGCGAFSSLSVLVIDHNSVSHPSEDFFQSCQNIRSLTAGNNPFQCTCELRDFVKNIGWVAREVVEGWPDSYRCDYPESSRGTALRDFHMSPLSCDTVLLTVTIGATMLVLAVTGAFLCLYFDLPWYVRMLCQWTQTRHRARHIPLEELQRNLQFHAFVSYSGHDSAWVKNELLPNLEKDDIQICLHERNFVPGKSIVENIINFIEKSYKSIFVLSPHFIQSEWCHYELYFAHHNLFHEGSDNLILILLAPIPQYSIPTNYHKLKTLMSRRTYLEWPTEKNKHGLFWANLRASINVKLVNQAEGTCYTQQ
T2 sequence (P10635 whole entry): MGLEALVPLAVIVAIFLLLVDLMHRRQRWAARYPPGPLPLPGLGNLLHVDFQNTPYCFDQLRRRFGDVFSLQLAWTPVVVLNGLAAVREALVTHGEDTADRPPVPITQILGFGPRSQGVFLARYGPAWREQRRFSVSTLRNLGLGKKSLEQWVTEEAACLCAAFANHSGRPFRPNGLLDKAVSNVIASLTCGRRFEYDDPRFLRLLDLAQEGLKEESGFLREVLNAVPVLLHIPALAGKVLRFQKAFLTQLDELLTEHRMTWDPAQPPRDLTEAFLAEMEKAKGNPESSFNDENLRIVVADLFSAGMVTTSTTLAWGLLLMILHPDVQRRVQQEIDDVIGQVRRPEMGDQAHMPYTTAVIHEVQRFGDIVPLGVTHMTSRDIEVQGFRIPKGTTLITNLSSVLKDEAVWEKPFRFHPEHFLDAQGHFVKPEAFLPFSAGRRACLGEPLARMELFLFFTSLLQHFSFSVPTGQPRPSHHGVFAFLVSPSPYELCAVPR
T5 sequence (P33261 whole entry): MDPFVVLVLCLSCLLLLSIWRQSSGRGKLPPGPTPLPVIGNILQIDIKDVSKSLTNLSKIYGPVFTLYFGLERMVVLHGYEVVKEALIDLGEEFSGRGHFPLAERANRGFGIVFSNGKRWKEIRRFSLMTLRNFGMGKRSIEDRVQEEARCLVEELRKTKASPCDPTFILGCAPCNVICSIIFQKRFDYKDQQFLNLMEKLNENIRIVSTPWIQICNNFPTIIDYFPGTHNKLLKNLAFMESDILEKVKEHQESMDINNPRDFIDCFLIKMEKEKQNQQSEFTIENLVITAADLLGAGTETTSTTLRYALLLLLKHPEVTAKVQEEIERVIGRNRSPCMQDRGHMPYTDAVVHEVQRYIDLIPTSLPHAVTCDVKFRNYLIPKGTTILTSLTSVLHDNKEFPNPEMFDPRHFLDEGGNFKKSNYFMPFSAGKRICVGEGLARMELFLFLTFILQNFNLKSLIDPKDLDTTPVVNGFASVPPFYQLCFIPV

Turning to `O=C(N[C@H](Cc1ccccc1)C(=O)O)c1sc2cc(F)ccc2c1Cl` [Compound 4a, (R)-2-(3-chloro-6-fluorobenzo[b]thiophene-2-carboxamido)-3-phenylpropanoic acid], the “effect on TLR7 signaling” value in data set [1] is listed as “without significantly affecting other TLRs”. Further, the “toxicity to Cyp2D6” value in data set [2] is “low toxicity”. In addition, the “toxicity to Cyp1A2” value in data set [3] is listed as “low toxicity”. For the same molecule, the “toxicity to Cyp3A4” value in data set [4] is recorded as “low toxicity”. Moreover, in data set [5], the “toxicity to Cyp2C19” value was “low toxicity”. In data set [6], the IL-1β production entry is on record as “inhibits” and the TNF-α production result was “inhibits”. The “effect on TLR2/1 signaling” value in data set [7] is listed as “without significantly affecting other TLRs”.
